Calls of active or inactive are those of the source.
Assays:
[1] = target: T1, Eukaryotic translation initiation factor 2-alpha kinase 3 (Homo sapiens, UniProt Q9NZJ5); assay: Counterscreen assay for PERK inhibitors: Dose response cell-based high throughput screening assay to measure inhibition of PERK at 6 hours. [Related pubchem assays: 1522, 1416 ]; format: functional
[2] = target: T1, Eukaryotic translation initiation factor 2-alpha kinase 3; assay: Dose response cell-based high-throughput screening assay to measure PERK inhibition. [Related pubchem assays: 1416 ]; format: functional
[3] = alpha-synuclein stem-loop luciferase translation blockers – H4 neuroglioma cells, luminescence, confirmation (AID 1988); format: functional, cell-based
[4] = cells; format: functional, cell-based
[5] = alpha-synuclein stem-loop translation blockers – luminescence, H4 neuroglioblastoma cells, dose confirmation, confirmation (AID 2454); format: functional, cell-based;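 also: H4 neuroglioblastoma cells carrying an alpha-synuclein 5'UTR luciferase reporter; potency for inhibition of the luciferase signal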
[6] = luciferase reporter signal reduction – luminescence, H4-C neuroglioblastoma cells, dose response (AID 2458); format: functional, cell-based;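 also: H4 neuroglioblastoma cells stably carrying a luciferase reporter gene fusion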
[7] = HEK-293T viability loss after treatment – luminescence, T-cell screen hits, cytotoxicity control for TCR NF-kB inhibitor project, dose response (AID 489026); format: functional, cell-based;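 also: cells exposed to compound about 14 hours before the viability readout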
[8] = luciferase reporter signal suppression in cells – H4 neuroglioma cells, luminescence, dose response (AID 1990); format: functional, cell-based
[9] = target: T2, Polyadenylate-binding protein 1 (Homo sapiens, UniProt P11940); assay: MLLE domain peptide-binding blockers, IC50 – biochemical, fluorescence polarization, FITC-PAM2 peptide, dose response (AID 602259); format: functional; details: read-out: IC50_Mean
T2 sequence (P11940 whole entry, the tested form may be a part): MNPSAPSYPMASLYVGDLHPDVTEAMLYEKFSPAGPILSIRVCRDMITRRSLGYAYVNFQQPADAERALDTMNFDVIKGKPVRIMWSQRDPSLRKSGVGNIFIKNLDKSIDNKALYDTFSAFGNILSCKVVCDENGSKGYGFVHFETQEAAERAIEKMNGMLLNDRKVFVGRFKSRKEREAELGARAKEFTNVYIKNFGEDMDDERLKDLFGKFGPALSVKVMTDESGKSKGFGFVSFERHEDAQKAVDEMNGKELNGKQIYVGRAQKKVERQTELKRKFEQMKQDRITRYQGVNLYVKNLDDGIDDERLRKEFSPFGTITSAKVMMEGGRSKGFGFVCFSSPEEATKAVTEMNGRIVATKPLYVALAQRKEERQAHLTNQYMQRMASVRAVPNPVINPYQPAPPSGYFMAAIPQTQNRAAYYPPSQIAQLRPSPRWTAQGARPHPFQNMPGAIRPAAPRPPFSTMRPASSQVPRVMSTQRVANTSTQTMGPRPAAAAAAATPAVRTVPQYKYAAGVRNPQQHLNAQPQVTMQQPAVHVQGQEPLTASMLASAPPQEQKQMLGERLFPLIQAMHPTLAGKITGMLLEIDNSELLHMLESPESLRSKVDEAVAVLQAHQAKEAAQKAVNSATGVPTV

[10] = target: T3, Heat shock 70 kDa protein 1A (Homo sapiens, UniProt P0DMV8); assay: small molecules displacing fluorescent ligand from Hsp70 – biochemical, fluorescence polarization, primary screen (AID 583)
T3 sequence (P0DMV8 whole entry): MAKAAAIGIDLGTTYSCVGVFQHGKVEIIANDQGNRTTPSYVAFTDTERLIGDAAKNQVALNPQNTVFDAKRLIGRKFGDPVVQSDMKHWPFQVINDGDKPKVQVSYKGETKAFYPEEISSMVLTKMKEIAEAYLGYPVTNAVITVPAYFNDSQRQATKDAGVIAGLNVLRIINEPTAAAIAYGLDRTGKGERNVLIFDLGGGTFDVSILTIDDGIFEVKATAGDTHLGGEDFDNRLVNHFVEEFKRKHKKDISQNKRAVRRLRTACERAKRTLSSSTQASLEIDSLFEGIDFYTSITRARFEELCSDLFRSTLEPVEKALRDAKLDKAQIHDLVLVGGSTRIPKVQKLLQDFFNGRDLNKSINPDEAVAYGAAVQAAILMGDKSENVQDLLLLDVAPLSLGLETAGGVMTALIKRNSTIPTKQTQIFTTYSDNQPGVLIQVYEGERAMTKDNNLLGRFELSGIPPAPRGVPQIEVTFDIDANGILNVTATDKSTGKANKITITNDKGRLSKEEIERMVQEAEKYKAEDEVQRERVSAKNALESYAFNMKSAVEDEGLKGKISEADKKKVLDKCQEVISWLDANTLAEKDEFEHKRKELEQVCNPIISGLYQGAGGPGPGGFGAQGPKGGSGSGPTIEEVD

[11] = target: T3, Heat shock 70 kDa protein 1A; assay: small-molecule inhibition of Hsp70 – biochemical, TR-FRET (AID 786)
[12] = target: T4, Female germline-specific tumor suppressor gld-1 (Caenorhabditis elegans, UniProt Q17339); assay: blockers of GLD-1/TGE RNA complex formation – biochemical, fluorescence polarization, C. elegans, dose response (AID 2802);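 also: fluorescence polarization of labeled TGE RNA bound by purified gld-1 protein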
T4 sequence (Q17339 whole entry): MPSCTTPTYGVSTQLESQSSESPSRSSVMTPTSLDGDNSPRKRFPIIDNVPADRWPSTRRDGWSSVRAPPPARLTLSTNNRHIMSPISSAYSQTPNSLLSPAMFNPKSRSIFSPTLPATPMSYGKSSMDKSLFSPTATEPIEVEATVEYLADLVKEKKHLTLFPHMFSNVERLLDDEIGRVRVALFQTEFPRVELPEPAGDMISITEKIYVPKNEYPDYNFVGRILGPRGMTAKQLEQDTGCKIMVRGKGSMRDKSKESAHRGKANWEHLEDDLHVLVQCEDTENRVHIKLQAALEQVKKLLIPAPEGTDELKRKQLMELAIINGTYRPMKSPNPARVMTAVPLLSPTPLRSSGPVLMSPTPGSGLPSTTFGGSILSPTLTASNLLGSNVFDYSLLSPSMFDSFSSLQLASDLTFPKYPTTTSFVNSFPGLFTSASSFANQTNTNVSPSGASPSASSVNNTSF

[13] = target: T2, Polyadenylate-binding protein 1; assay: MLLE binding blockers, Cy5 peptide tracer – biochemical, fluorescence polarization, Cy5-PAM2 peptide, secondary, miRNA deadenylation inhibitor project, dose response (AID 602260); format: functional; details: read-out: IC50_Mean
[14] = target: T5, RNA-binding protein pos-1 (Caenorhabditis elegans, UniProt G5EF15); assay: disruptors of C. elegans POS-1 RNA interaction – biochemical, fluorescence polarization, dose response (AID 1964);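 also: purified POS-1 fused to maltose binding protein made in E. coli; potency of compounds blocking POS-1 binding to fluorescent RNA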
T5 sequence (G5EF15 whole entry): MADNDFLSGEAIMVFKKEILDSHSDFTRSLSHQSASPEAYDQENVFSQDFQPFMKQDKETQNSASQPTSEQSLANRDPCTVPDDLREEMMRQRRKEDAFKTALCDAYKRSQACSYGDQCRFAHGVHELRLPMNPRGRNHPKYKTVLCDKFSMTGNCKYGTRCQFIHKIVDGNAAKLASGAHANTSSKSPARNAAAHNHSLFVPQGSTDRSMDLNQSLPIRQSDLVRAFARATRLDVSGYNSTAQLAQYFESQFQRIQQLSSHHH

[15] = viability loss in HepG2 liver cells – cell-based, ATP luminescence, cherry-pick, set 6, cytotoxicity control, dose response (AID 1053125); format: functional
[16] = target: T6, Protein Rev (Human immunodeficiency virus type 1 group M subtype B (isolate HXB2)(HIV-1), UniProt P04618); assay: blockers of HIV Rev/RRE RNA complex – biochemical, fluorescence polarization, HIV-1, dose response (AID 434976); design: species or system Human immunodeficiency virus 1
T6 sequence (P04618 whole entry): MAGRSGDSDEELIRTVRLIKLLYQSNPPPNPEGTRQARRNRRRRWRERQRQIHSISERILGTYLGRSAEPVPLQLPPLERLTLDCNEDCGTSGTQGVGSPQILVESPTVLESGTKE

[17] = target: T7, Zinc finger protein mex-5 (Caenorhabditis elegans, UniProt Q9XUB2); assay: potency of MEX-5 RNA-binding blockers – biochemical, C. elegans, fluorescence polarization, dose response (AID 1960)
T7 sequence (Q9XUB2 whole entry): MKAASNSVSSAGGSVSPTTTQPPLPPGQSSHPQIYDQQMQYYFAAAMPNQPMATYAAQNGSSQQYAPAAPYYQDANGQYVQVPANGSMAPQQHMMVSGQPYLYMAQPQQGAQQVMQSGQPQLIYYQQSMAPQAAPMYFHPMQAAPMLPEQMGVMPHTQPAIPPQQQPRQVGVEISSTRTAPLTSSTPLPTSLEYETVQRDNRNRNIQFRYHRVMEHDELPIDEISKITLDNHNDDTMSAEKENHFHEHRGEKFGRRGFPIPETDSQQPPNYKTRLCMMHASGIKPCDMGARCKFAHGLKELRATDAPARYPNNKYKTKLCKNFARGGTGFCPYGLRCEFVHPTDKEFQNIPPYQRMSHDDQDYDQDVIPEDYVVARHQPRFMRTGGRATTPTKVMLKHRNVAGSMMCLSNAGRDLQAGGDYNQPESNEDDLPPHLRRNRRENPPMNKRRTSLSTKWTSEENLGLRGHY

[18] = target: T8, Alkaline phosphatase, tissue-nonspecific isozyme (Homo sapiens, UniProt P05186)
T8 sequence (P05186 whole entry): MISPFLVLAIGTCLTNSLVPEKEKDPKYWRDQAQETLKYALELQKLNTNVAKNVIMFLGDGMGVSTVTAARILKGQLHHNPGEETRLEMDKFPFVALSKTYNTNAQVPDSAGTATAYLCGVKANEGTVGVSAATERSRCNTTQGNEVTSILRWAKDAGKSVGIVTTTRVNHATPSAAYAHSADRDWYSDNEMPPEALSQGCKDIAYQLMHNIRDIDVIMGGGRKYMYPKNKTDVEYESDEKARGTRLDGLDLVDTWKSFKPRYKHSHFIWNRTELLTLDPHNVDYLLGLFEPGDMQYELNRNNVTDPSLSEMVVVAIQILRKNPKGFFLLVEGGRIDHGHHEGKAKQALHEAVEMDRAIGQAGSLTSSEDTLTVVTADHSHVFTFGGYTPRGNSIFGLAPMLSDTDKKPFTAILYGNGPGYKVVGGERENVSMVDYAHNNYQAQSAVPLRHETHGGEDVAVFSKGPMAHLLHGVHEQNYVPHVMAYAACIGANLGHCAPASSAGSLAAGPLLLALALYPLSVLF

[19] = viability of PTEN-deleted HCT116 cells – cell-based, HCT116 PTEN knockout, dose response (AID 1047); format: functional;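 also: HCT116 colon tumor cells with PTEN knocked out; cells exposed to compound for 60 hours before readout; potency for loss of cell viability measured by luminescence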
[20] = target: G-protein coupled receptor 35 (Homo sapiens, UniProt Q9HC97); assay: inhibition of zaprinast-stimulated GPR35 beta-arrestin translocation – imaging, U2OS, beta-arrestin-GFP, zaprinast agonist, primary screen (AID 2058); format: functional;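 also: antagonist potency meaning inhibition of agonist-induced arrestin redistribution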
G-protein coupled receptor 35, sequence (Q9HC97 whole entry): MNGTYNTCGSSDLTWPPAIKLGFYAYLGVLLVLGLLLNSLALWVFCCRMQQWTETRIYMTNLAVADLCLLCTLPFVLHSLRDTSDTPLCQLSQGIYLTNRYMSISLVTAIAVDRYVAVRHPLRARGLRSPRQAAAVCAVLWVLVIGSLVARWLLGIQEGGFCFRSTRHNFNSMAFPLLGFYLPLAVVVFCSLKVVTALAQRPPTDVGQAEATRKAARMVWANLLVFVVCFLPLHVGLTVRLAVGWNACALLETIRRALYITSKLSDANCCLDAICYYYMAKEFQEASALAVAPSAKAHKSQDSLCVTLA

[21] = test system: INS1; assay: INS-1E survival protection against cytokine death – cell-based, luminescence, retest, dose response (AID 449756); format: functional; details: Rattus norvegicus;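 also: cell death triggered by IL-1 beta plus TNF-alpha plus IFN-gamma mixture; protective hits raise ATP signal compared with cytokine alone wells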
[22] = Trypanosoma cruzi growth suppression in host cells – NIH3T3 host cells, beta-gal luminescence, confirmation (AID 2044); format: functional, cell-based;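 also: intracellular parasites grown in NIH/3T3 mouse fibroblasts as host cells; luminescent beta-galactosidase reporter signal from transgenic T. cruzi replicating inside host cells; inhibitors lower the luminescence signal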
[23] = viability of HCT116 lacking mutant beta-catenin – cell-based, human colon tumor, dose response (AID 1045); format: functional;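 also: HCT116 colon tumor cells with beta catenin knocked out; cells exposed to compound for 60 hours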
[24] = target: NACHT, LRR and PYD domains-containing protein 3 (Homo sapiens, UniProt Q96P20); assay: NALP3 inhibitors in yeast, dose response, luminescent (AID 488799); format: functional
NACHT, LRR and PYD domains-containing protein 3, sequence (Q96P20 whole entry, the tested form may be a part): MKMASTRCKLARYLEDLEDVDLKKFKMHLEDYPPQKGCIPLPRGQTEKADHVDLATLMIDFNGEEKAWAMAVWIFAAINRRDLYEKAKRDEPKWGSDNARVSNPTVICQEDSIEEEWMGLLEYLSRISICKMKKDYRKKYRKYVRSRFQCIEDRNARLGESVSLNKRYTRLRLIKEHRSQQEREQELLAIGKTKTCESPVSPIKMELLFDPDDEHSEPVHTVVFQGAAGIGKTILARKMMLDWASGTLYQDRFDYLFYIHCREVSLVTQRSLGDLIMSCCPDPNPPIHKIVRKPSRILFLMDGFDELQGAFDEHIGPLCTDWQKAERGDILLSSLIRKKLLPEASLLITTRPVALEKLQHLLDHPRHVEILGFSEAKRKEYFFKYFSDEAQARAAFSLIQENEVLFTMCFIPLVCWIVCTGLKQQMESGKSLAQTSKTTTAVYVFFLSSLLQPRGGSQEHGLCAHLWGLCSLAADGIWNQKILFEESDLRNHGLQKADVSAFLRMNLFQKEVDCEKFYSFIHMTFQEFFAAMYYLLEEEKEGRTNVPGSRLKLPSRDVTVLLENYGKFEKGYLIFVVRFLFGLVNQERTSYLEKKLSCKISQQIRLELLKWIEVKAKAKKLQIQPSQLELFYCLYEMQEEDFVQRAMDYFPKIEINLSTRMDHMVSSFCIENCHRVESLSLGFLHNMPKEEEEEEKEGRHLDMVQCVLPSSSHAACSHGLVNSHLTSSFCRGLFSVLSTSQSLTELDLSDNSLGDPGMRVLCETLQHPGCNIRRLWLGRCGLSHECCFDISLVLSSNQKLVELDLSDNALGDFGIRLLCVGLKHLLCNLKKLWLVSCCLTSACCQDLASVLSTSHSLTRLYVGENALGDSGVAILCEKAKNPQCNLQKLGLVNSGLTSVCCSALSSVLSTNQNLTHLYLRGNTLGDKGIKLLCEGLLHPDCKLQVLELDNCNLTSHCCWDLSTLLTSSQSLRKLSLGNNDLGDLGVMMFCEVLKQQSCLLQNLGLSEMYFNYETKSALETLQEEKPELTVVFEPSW

T1 sequence (Q9NZJ5 whole entry): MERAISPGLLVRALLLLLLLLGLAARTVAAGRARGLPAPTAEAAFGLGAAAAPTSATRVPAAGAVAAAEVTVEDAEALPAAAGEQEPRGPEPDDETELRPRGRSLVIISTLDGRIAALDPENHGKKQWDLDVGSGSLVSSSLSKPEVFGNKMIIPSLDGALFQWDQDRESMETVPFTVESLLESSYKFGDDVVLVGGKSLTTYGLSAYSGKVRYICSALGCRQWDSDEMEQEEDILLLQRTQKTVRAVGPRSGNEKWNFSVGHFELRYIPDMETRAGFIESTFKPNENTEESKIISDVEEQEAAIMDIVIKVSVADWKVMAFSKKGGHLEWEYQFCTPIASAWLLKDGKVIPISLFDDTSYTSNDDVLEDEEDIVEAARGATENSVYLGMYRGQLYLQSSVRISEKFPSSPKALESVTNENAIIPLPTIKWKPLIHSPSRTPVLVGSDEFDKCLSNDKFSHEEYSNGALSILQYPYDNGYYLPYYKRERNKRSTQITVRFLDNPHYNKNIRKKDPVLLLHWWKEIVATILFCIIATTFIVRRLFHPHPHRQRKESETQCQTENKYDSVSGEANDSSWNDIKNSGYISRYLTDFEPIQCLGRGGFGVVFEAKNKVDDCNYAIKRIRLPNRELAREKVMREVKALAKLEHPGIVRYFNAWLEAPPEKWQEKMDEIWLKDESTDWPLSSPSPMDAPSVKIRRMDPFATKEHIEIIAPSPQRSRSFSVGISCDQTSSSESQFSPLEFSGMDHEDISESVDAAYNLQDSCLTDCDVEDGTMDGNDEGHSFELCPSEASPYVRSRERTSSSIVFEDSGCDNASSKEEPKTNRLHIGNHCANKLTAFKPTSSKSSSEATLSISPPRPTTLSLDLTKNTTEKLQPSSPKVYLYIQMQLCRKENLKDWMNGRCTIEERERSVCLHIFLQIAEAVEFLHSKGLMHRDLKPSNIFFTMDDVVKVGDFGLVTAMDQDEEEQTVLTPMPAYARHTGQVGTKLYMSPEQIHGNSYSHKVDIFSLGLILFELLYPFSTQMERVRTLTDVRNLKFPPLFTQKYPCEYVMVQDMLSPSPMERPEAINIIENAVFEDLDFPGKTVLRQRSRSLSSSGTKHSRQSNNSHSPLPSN

O/N=C/c1ccc2cccc(O)c2n1
EC50 [1]: > 55.7 µM (not active) | EC50 [2]: > 55.7 µM (not active)

CCOC(=O)C(C)Oc1cccc2c(=O)n(CC(=O)NCc3ccc(F)cc3)ccc12 (centres undefined)
EC50 [3]: < 0.1 µM (active) | EC50 [4]: 1.67 µM (active) | EC50 [5]: > 12 µM (inconclusive) | EC50 [6]: > 12 µM (not active) | IC50 [7]: > 80 µM (inactive) | EC50 [8]: 0.3 µM (active)

Nc1cccc2c1C(=O)N(c1ccccc1)C2=O
IC50 [9]: 24 µM (inactive) | IC50 [10]: 12.4 µM (active) | IC50 [11]: > 100 µM (not active) | IC50 [12]: 2.9 µM (active) | IC50 [13]: > 66 µM (inactive) | EC50 [14]: 17 µM (active) | AC50 [15]: > 52 µM (inactive) | IC50 [16]: 7.86 µM (active) | EC50 [17]: 10.5 µM (active)

CCn1c(/C=N/Nc2ccc(C(=O)O)cc2)nc2ccccc21
EC50 [18]: 88.3 µM (not active)

COc1ccc(/N=C2\S/C(=C\c3ccc(N4CCOCC4)o3)C(=O)N2CCc2c[nH]c3ccccc23)cc1
EC50 [19]: 10 µM (active) | IC50 [20]: 1.49 µM (active) | AC50 [21]: 7.09 µM (active) | EC50 [22]: 0.335 µM (active) | EC50 [23]: 7.54 µM (active)

Cc1cccc(C(=O)ONC(=N)Cc2cccc3ccccc23)c1
IC50 [24]: 1.62 µM (active)
